{"source": "patent US20260325605A1", "about": "“INHIBITORS” (Zealand Pharma A/S, priority 2022, published 2026)", "key": {"Kv1.2": {"target": "T1, Kv1.2 (Homo sapiens, UniProt P16389)", "T1 construct": "expressed in transfected cells", "T1 sequence (P16389 whole entry)": "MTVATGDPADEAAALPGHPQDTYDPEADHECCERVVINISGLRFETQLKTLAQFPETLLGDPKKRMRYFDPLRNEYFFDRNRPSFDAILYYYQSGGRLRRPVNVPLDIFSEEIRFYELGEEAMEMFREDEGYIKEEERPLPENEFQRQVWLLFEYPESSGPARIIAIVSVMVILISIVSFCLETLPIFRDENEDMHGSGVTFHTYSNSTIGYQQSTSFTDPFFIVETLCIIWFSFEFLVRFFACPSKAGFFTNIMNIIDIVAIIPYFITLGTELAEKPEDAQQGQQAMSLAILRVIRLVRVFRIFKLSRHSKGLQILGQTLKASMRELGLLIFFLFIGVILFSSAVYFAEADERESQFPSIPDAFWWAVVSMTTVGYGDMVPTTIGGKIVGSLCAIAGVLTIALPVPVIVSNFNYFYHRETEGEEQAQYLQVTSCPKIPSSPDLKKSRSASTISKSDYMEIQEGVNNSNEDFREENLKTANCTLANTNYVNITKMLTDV", "assay": "Patch clamp assay (QPatch), Kv1.2", "type": "cell-based"}, "[1]": {"tested_on": "KLH-induced DTH ear swelling in rats", "assay": "Example 8: Long-lasting effect in KLH-induced delayed type hypersensitivity (DTH) model", "type": "in vivo, rat (Lewis)", "experimental": "The animal care facility employed is accredited by AAALAC. Female Lewis rats, weighing 180±20 g at delivery were used for this study. Following arrival in the animal facility, all animals were subjected to a general health evaluation. An acclimation period of 1 day was allowed before the beginning of the study.\nThe animal room was maintained at a controlled temperature of 20-24° C. and a relative humidity of 30-70%. A controlled lighting system assured 12 hours light, 12 hours dark per day to the animals. Adequate ventilation of 15 air changes per hour was maintained.\nThis study was performed to investigate the length of effect of a Kv1.3 inhibitor (peptide 100) on ear inflammation in the KLH-induced DTH model in rats.\nHealthy male Lewis rats aged 8-9 weeks were immunized on day 0 with 200 μL keyhole limpet hemocyanin (KLH) (from Sigma, cat.no. H7017) (4 mg/mL) emulsified in complete Freund's adjuvant (CFA) (Difco, cat.no. 263810) subcutaneously (SC) at the base of the tail.\nTo elicit a KLH-specific T cell-mediated local inflammation, rats were challenged intradermally at indicated timepoints (days 7, 9, 11 or 13 post-immunisation) with 40 μL KLH/NaCl 0.9% (2 mg/mL) in the left ear. Ear edemas were measured after 24-48 hrs and the right ear that was left untreated served as control. A schematic overview of the protocol is depicted in FIG. 1.\nThe ability of Kv1.3 inhibitor treatment to reduce the DTH ear swelling response was investigated by comparing the response in rats (n=8/group) treated with vehicle to that of rats treated with peptide 100. Vehicle or peptide 100 dissolved in vehicle was administered SC (2 mL/kg) on day 6. The test dose of Kv1.3 inhibitor was 300 nmol/kg. Test vehicle was 10 mM phosphate, 0.8% w/v NaCl, 0.05% w/v polysorbate20, pH 6. Cyclosporine A (CsA) was included as positive study control.\nAs readout of efficacy, the thickness of the induced ear 24 hrs and 48 hrs after respective ear challenge was measured and compared to vehicle control. Ear thickness 24 hrs after challenge is shown in Table 10 and FIG. 2 and ear thickness 48 hrs after challenge is shown in Table 11 and FIG. 3."}, "[2]": {"tested_on": "T-cell activation in human whole blood", "assay": "Example 5: IFN-g, IL-2 and IL-17A release in thapsigargin stimulated human whole blood", "type": "cell-based", "conditions": "24 Hr, at least 2 replicate experiments", "description": "Human whole blood was used to assess the potency of Kv1.3 inhibitor peptides on T-cell activation as determined by release of the cytokines IFN-g, IL-2 and IL-17A after stimulation with thapsigargin. Addition of thapsigargin activates a signalling cascade resulting in T cell proliferation and cytokine production, in which the Kv1.3 ion channel plays a key role. Activity of Kv1.3 inhibitors in human primary T cells can thus be measured in this experimental system.\nHuman whole blood was obtained from healthy blood donors and was collected after informed consent using Sodium Heparin blood sampling tubes (Becton, Dickinson and Company (BD), Cat #367876). Test peptides were diluted to 4× final testing concentrations in assay buffer (Dulbecco's Modified Eagle's medium (DMEM) with high glucose and GlutaMAX (3.97 mM L-alanine-L-glutamine) (Gibco Cat #61965026) supplemented with 25 mM HEPES buffer, 1 mM Sodium Pyruvate, 100 units/ml Penicillin, 100 μg/ml Streptomycin and 0.05% Casein from bovine milk (Sigma-Aldrich Cat #C4765)) and 25 μl was added to wells of a 96 well tissue culture plate. Then 50 μl human whole blood was added and incubated for minimum 5 minutes at room temperature to allow compound binding. Then 25 μl of 40 μM thapsigargin diluted in assay buffer was added to all wells of the assay plates to activate the cells, followed by incubation for 24 Hr at 37° C./5% CO2 in a humidified box. The assay plates were centrifuged for 10 min at 300 g at 4° C. and the supernatants were transferred to new plates. The concentrations of IFN-g, IL-2 and IL-17A released to the supernatants were measured using a tri-plex human cytokine detection kit (MSD Human U-Plex IFN-g, IL-2 and IL-17A kit; Meso Scale Discovery Cat #K15067L-2) and all three cytokines were measured using a MSD MESO QuickPlex SQ 120 instrument as described by the manufacturer (Meso Scale Discovery, Rockville, Maryland, USA).\nTo determine the potency of inhibition for the compounds, the cytokine concentration data were fitted using a three parameter logistic dose response model based on the formula Y=Bottom+(Top−Bottom)/(1+IC50/X), where Y is measured cytokine concentrations, X is compound concentrations and Top, bottom and IC50 are parameters fitted using the software Graphpad Prism version 5.04. The IC50 value calculated from the concentration response curve represents the compound concentration that gives an inhibition response halfway between the basal (Bottom) response and the maximal (Top) response.\nAll values are derived from at least 2 replicate experiments. All of the tested Kv1.3 blockers were able to inhibit cytokine production from human T cells present in human whole blood that was stimulated with thapsigargin."}}, "note": "Where two headings read alike, the source gives them in different places.", "data": [{"substance": "H-P[Nle]E[Nle]RC(1)SASVEC(2)KQKC(3)LAAIGSIFGKC(1)[Nle]NKKC(2)KC(3)YPR-OH [Peptide 100]", "values": [{"measurement": "IC50", "setting": "Kv1.2; QPatch, CHO cells stably expressing human Kv1.2, read-out: Potency IC50, Kv1.2", "result": 1120, "unit": "nM"}, {"measurement": "Selectivity Kv1.2/Kv1.3", "setting": "Kv1.2; ratio of IC50 Kv1.2/Kv1.3", "result": 3384}, {"measurement": "effect on KLH-induced ear swelling / inflammation", "setting": "[1]; 300 nmol/kg on day 6, challenges on days 7, 9 and 11, in words", "result": "reduced KLH-induced ear swelling after challenges on days 7, 9 and 11"}, {"measurement": "Mean ear thickness of KLH-induced ear", "setting": "[1]; 300 nmol/kg s.c. day 6, challenge day 7, 24 hrs post-challenge (2 days post-treatment), vehicle 0.796, p<0.0001", "result": "0.676±0.017", "unit": "mm"}, {"measurement": "Mean ear thickness of KLH-induced ear", "setting": "[1]; 300 nmol/kg s.c. day 6, challenge day 7, 48 hrs post-challenge (3 days post-treatment), vehicle 0.733, p<0.0001", "result": "0.623±0.015", "unit": "mm"}, {"measurement": "Mean ear thickness of KLH-induced ear", "setting": "[1]; 300 nmol/kg s.c. day 6, challenge day 9, 24 hrs post-challenge (4 days post-treatment), vehicle 0.761, p=0.0011", "result": "0.689±0.031", "unit": "mm"}, {"measurement": "Mean ear thickness of KLH-induced ear", "setting": "[1]; 300 nmol/kg s.c. day 6, challenge day 9, 48 hrs post-challenge (5 days post-treatment), vehicle 0.729, p=0.0002", "result": "0.659±0.034", "unit": "mm"}, {"measurement": "Mean ear thickness of KLH-induced ear", "setting": "[1]; 300 nmol/kg s.c. day 6, challenge day 11, 24 hrs post-challenge (6 days post-treatment), vehicle 0.784, p<0.0001", "result": "0.681±0.023", "unit": "mm"}, {"measurement": "Mean ear thickness of KLH-induced ear", "setting": "[1]; 300 nmol/kg s.c. day 6, challenge day 11, 48 hrs post-challenge (7 days post-treatment), vehicle 0.746, p<0.0001", "result": "0.653±0.013", "unit": "mm"}, {"measurement": "Mean ear thickness of KLH-induced ear", "setting": "[1]; 300 nmol/kg s.c. day 6, challenge day 13, 24 hrs post-challenge (8 days post-treatment), vehicle 0.767, p=0.0696, not significant", "result": "0.729±0.038", "unit": "mm"}, {"measurement": "Mean ear thickness of KLH-induced ear", "setting": "[1]; 300 nmol/kg s.c. day 6, challenge day 13, 48 hrs post-challenge (9 days post-treatment), vehicle 0.720, p=0.2256, not significant", "result": "0.699±0.028", "unit": "mm"}, {"measurement": "Mean ear thickness of KLH-induced ear", "setting": "[1]; measured 48 hrs post-challenge, day 3 post-treatment, 300 nmol/kg SC", "result": 0.623, "unit": "mm"}, {"measurement": "Mean ear thickness of KLH-induced ear", "setting": "[1]; measured 48 hrs post-challenge, day 5 post-treatment, 300 nmol/kg SC", "result": 0.659, "unit": "mm"}, {"measurement": "Mean ear thickness of KLH-induced ear", "setting": "[1]; measured 48 hrs post-challenge, day 7 post-treatment, 300 nmol/kg SC", "result": 0.653, "unit": "mm"}, {"measurement": "Mean ear thickness of KLH-induced ear", "setting": "[1]; measured 48 hrs post-challenge, day 9 post-treatment, 300 nmol/kg SC", "result": 0.699, "unit": "mm"}, {"measurement": "IC50", "setting": "[2]; read-out: Average IC50, IFN-g", "result": 0.11, "unit": "nM"}, {"measurement": "IC50", "setting": "[2]; read-out: Average IC50, IL-2", "result": 0.095, "unit": "nM"}, {"measurement": "IC50", "setting": "[2]; read-out: Average IC50, IL-17A", "result": 0.15, "unit": "nM"}]}]}
